Experimental data published in patent US8623900B2, “Amino alcohol derivatives and their therapeutic activities” (Flamma S.p.A., priority 2009, dated 2014).

What was measured:
[1] = tested on: rat; assay: preliminary toxicological study in the rat; format: in vivo
[2] = carbonyl-quenching activity towards HNE in vitro (residual HNE by reverse-phase chromatography); format: biochemical; details: HNE 50 μM, compound 1 mM, phosphate buffer 10 mM, pH 7.4, 37° C.; percentage of HNE reacted after one, two and three hours
Method: The pharmacological activity of the compounds according to the invention was determined in vitro by evaluating their carbonyl-quenching activity towards 4-hydroxy nonenal ([…]), which is known for its involvement in numerous disorders.
The activity was evaluated one, two and three hours after incubation, determining the residual HNE content by reverse-phase chromatography as previously described by Aldini G. et al. [Biochem Biophys Res Commun. 2002 Nov. 15; 298(5):699-706]. The carbonyl-quenching activity is evaluated on the basis of the percentage of HNE reacted, compared with the HNE content in the absence of the molecule to be tested.

NCCC(=O)N[C@H](CO)Cc1cnc[nH]1 [3-Amino-N-[(1S)-2-hydroxy-1-(1H-imidazol-5-yl-methyl)-ethyl]propanamide]
toxic effects ([1]; IV, 3 consecutive doses 3, 10 and 30 mg/kg): no toxic effects were observed
toxic effects ([1]; intraperitoneal, single dose 100 mg/kg): no toxic effects were observed
toxic effects ([1]; per os (gavage), 100 mg/kg/day for 7 days): no toxic effects were observed
carbonyl-quenching activity relative to β-alanyl histidine (standard substance) [2]: 1.66 times
